Several values for one entry are separate records, joined by “and”; a condition that tells them apart may be missing. Equal entries are not always repeated.
What was measured:
Assay type in all cases: in vivo
[1] = test system: Ischaemum rugosum SALISB. (ISCRU); experiment: Postemergence herbicidal mixtures for weed control in direct seeded rice (greenhouse, visual % injury); conditions: ISCRU
[2] = test system: Brachiaria platyphylla (BRISEB.) NASH (BRAPP); experiment: as above
[3] = test system: Fimbristylis miliacea (L.) VAHL (FIMMI); experiment: as above; conditions: for % Injury Ob: FIMMI
[4] = test system: Cyperus esculentus L. (CYPES); experiment: as above; conditions: CYPES
Cyperus iria L. (CYPIR) = experiment: as above; conditions: CYPIR
[5] = test system: Polygonum pensylvanicum L. (POLPY); experiment: as above; conditions: for % Injury Ob: POLPY
[6] = test system: Scirpus maritimus L. (SCPMA); experiment: as above; conditions: for % Injury Ob: SCPMA
Scirpus species (SCPSS) = experiment: Herbicidal mixtures for weed control in transplanted paddy rice (in-water application, visual % injury); conditions: SCPJU; 35 g/ha alone
Description: (§1) Weed seeds or nutlets of the desired test plant species were planted in puddled soil (mud) prepared by mixing a non-sterilized mineral soil (28 percent silt, 18 percent clay, and 54 percent sand, with a pH of about 7.3 to 7.8 and an organic matter content of about 1.0 percent) and water at a ratio of 100 kilograms (kg) of soil to 19 L of water. The prepared mud was dispensed in 250 mL aliquots into 480 mL non-perforated plastic pots with a surface area of 91.6 square centimeters leaving a headspace of 3 centimeters in each pot. Rice seeds were planted in Sun Gro MetroMix® 306 planting mixture, which typically has a pH of 6.0 to 6.8 and an organic matter content of about 30 percent, in plastic plug trays. Seedlings at the second or third leaf stage of growth were transplanted into 650 mL of mud contained in 960 mL non-perforated plastic pots with a surface area of 91.6 cm^2 4 days prior to herbicide application. The paddy was created by filling the 3 centimeter headspace of the pots with water. […] The plants were grown for 4-14 days in a greenhouse with an approximate 14 hr photoperiod which was maintained at about 29° C. during the day and 26° C. during the night. Nutrients were added as Osmocote (17:6:10, N:P:K+minor nutrients) at 2 g per cup. Water was added on a regular basis to maintain the paddy flood, and supplemental lighting was provided with overhead metal halide 1000-Watt lamps as necessary. The plants were employed for testing when they reached the second or third true leaf stage.
(§2) Treatments consisted of esters or salts of compound A, compound C, or compound D and various herbicidal components alone and in combination. For technical grade compounds, a weighed amount, determined by the highest rate to be tested, was placed in an individual 120 mL glass vial and was dissolved in 20 mL of acetone to obtain concentrated stock solutions. […] The concentrated stock solutions obtained were diluted with 20 mL of an aqueous mixture containing 2.5% Agri-dex crop oil concentrate (v/v). For formulated compounds, a measured amount, determined by the highest rate to be tested, was placed in an individual 120 mL glass vial and was dissolved in 20 mL of 2.5% (v/v) Agri-dex crop oil concentrate to obtain concentrated stock solutions. The concentrated stock solutions obtained were diluted with 20 mL of acetone. Applications were made by injecting an appropriate amount of the stock solution into the aqueous layer of the paddy. Control plants were treated in the same manner with the solvent blank. All treated plant material received the same concentration of acetone and crop oil concentrate.
(§3) Forms of compounds A, C, and D were applied on an acid equivalent basis. Other herbicidal components were applied on an active ingredient basis and included acetolactate synthase (ALS)-inhibiting herbicides penoxsulam (triazolopyrimidine chemical class) applied as Grasp SC, […] (sulfonylurea chemical class) applied as Sirius G, and bensulfuron-methyl (sulfonylurea chemical class) applied as Londax; acetyl CoA carboxylase (ACCase) inhibiting herbicides cyhalofop-butyl applied as Clincher G and fenoxaprop-p-ethyl applied as Ricestar HT; auxinic herbicide quinclorac applied as Facet 75 DF; phytoene desaturase inhibiting herbicide norflurazon; and p-hydroxyphenylpyruvate dioxygenase (HPPD) inhibiting herbicide sulcotrione applied as Mikado.
(§4) The treated plants and control plants were placed in a greenhouse as described above and water was added as needed to maintain a paddy flood. After 3 weeks the condition of the test plants as compared with that of the untreated plants was determined visually and scored on a scale of 0 to 100 percent where 0 corresponds to no injury and 100 corresponds to complete kill.

[7] = test system: Fimbristylis miliacea (L.) VAHL (FIMMI); experiment: as above; conditions: 35 g/ha alone
Description: as §1, §2, §3, §4

[8] = test system: windgrass (Apera spica-venti L; APESV); experiment: Postemergence herbicidal activity of mixtures in cereal crops (greenhouse, visual injury); conditions: Apera spica-venti, post-emergence, 2.5 g/ha, Table 14; read-out: APESV Ob
Description: (§5) Seeds of the desired test plant species were planted in Sun Gro MetroMix® 306 planting mixture, which typically has a pH of 6.0 to 6.8 and an organic matter content of about 30 percent, in plastic pots with a surface area of 103.2 square centimeters (cm^2). […] The plants were grown for 7-36 days in a greenhouse with an approximate 14 hour photoperiod which was maintained at about 18° C. during the day and 17° C. during the night. Nutrients and water were added on a regular basis and supplemental lighting was provided with overhead metal halide 1000-Watt lamps as necessary. The plants were employed for testing when they reached the second or third true leaf stage.
(§6) Treatments consisted of compound (as listed in Tables 1 through 64) and a second cereal herbicide alone and in combination. […] The concentrated stock solutions were diluted to 1.5 mg ai/mL with the addition of 2 volumes of an aqueous mixture containing acetone, water, isopropyl alcohol, DMSO, Agri-dex crop oil concentrate, and Triton® X-77 surfactant in a 64.7:26.0:6.7:2.0:0.7:0.01 v/v ratio. A dilution solution was prepared by mixing 1 volume of 97:3 v/v acetone/DMSO and 2 volumes of an aqueous mixture containing acetone, water, isopropyl alcohol, DMSO, Agri-dex crop oil concentrate, and Triton® X-77 surfactant in a 64.7:26.0:6.7:2.0:0.7:0.01 v/v ratio. Compound requirements are based upon a 12 mL application volume at a rate of 187 liters per hectare (L/ha). […] Formulated compounds were applied to the plant material with an overhead Mandel track sprayer equipped with 8002E nozzles calibrated to deliver 187 L/ha over an application area of 0.503 square meters (m^2) at a spray height of 18 inches […] above average plant canopy. Control plants were sprayed in the same manner with the solvent blank.
as §4, with “watered by sub-irrigation” for “water was added as needed”, “prevent wash-off of the test compounds.” for “maintain a paddy flood.”, “20-22 days,” for “3 weeks”, “control” for “untreated”
(§7) Colby's equation was used to determine the herbicidal effects expected from the mixtures (Colby, S. R. 1967. Calculation of the synergistic and antagonistic response of herbicide combinations. Weeds 15:20-22.).
(§8) The following equation was used to calculate the expected activity of mixtures containing two active ingredients, A and B: Expected=A+B−(A×B/100)

[9] = test system: wild oats (Avena fatua L; AVEFA); experiment: as above; conditions: 2.5 g/ha, Table 14
Description: as §5, §6
as §4, with “watered by sub-irrigation” for “water was added as needed”, “prevent wash-off of the test compounds.” for “maintain a paddy flood.”, “20-22 days,” for “3 weeks”, “control” for “untreated”
as §7, §8

[10] = test system: green foxtail (Setaria viridis L; SETVI); experiment: as above; conditions: 2.5 g/ha, Table 7
How it was run: (§9)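 Greenhouse-grown plants at 2nd–3rd true leaf stage (14 h photoperiod, ~18/17 °C) sprayed postemergence at 187 L/ha with compound A or B (methyl ester or TEA/K salt) and a second cereal herbicide, alone and in two- or three-way mixtures. Visual injury (0–100%) scored versus solvent-blank controls after 20–22 days; expected mixture activity calculated by Colby's equation.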

[11] = test system: Italian ryegrass (Lolium multiflorum L; LOLMU); experiment: as above; conditions: 2.5 g/ha, Table 14
How it was run: as §9

[12] = test system: Canada thistle (Cirsium arvense L; CIRAR); experiment: as above; conditions: 3.75 g/ha
How it was run: (§10)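 Weeds grown in greenhouse (~14 h photoperiod, ~18/17 °C day/night) to second–third true leaf stage, sprayed postemergence with compound and second cereal herbicide alone or combined; solvent-blank controls. Injury scored visually after 20-22 days, 0–100% (complete kill); expected mixture activity = A+B−(A×B/100).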

[13] = test system: blackgrass (Alopecurus myosuroides L; ALOMY); experiment: Postemergence herbicidal activity of mixtures in cereal crops (greenhouse, visual injury 0-100 percent after 20-22 days); conditions: 2.5 g/ha
Description: as §5, §6
as §4, with “watered by sub-irrigation” for “water was added as needed”, “prevent wash-off of the test compounds.” for “maintain a paddy flood.”, “20-22 days,” for “3 weeks”, “control” for “untreated”
as §7, §8

[14] = test system: lady's-thumb (Polygonum persicaria L; POLPE); experiment: Postemergence herbicidal activity of mixtures in cereal crops (greenhouse, visual injury); conditions: 70 g/ha alone
How it was run: as §9

[15] = test system: chickweed (Stellaria media L; STEME); experiment: as above; conditions: 70 g/ha alone
How it was run: as §9

[16] = test system: wild buckwheat (Polygonum convolvulus L; POLCO); experiment: as above; conditions: 70 g/ha alone
How it was run: as §9

[17] = test system: bird's-eye speedwell (Veronica persica L; VERPE); experiment: as above; conditions: 70 g/ha alone
How it was run: as §10

[18] = test system: wild pansy (Viola tricolor L; VIOTR); experiment: as above; conditions: 70 g/ha alone
How it was run: as §10

Cyperus species (CYPSS) = experiment: Herbicidal mixtures for weed control in transplanted paddy rice (in-water application, visual % injury); conditions: CYPES = Cyperus esculentus
Description: Weed seeds or nutlets of the desired test plant species were planted in puddled soil (mud) prepared by mixing a non-sterilized mineral soil (28 percent silt, 18 percent clay, and 54 percent sand, with a pH of about 7.3 to 7.8 and an organic matter content of about 1.0 percent) and water at a ratio of 100 kilograms (kg) of soil to 19 L of water. The prepared mud was dispensed in 250 mL aliquots into 480 mL non-perforated plastic pots with a surface area of 91.6 square centimeters leaving a headspace of 3 centimeters in each pot. Rice seeds were planted in Sun Gro MetroMix® 306 planting mixture, which typically has a pH of 6.0 to 6.8 and an organic matter content of about 30 percent, in plastic plug trays. Seedlings at the second or third leaf stage of growth were transplanted into 650 mL of mud contained in 960 mL non-perforated plastic pots with a surface area of 91.6 cm^2 4 days prior to herbicide application. The paddy was created by filling the 3 centimeter headspace of the pots with water. When required to ensure good germination and healthy plants, a fungicide treatment and/or other chemical or physical treatment was applied. The plants were grown for 4-14 days in a greenhouse with an approximate 14 hr photoperiod which was maintained at about 29° C. during the day and 26° C. during the night. Nutrients were added as Osmocote (17:6:10, N:P:K+minor nutrients) at 2 g per cup. Water was added on a regular basis to maintain the paddy flood, and supplemental lighting was provided with overhead metal halide 1000-Watt lamps as necessary. The plants were employed for testing when they reached the second or third true leaf stage.
as §2, §3, §4

C=CCOC(=O)c1nc(-c2ccc(Cl)c(OC)c2F)cc(N)c1Cl [Compound A Allyl]
% Injury Ob ([1]; 8.75 g/ha alone): 10%
% Injury Ob ([1]; 17.5 g/ha alone): 40%
% Injury Ob ([2]; 4.38 g/ha alone): 80%
% Injury Ob ([2]; 8.75 g/ha alone): 60% and 80% and 100%
% Injury Ob ([2]; 17.5 g/ha alone): 99%
% Injury Ob ([3]; 8.75 g/ha alone): 0%
% Injury Ob ([3]; 35 g/ha alone): 60%
% Injury FIMMI Ob ([3]; alone 17.5 g/ha): 40%
% Injury Ob ([4]; 17.5 g/ha alone): 50%
% Injury Ob ([4]; 35 g/ha alone): 95%
% Injury Ob (Cyperus iria L. (CYPIR); 17.5 g/ha alone): 35%
% Injury Ob (Cyperus iria L. (CYPIR); 35 g/ha alone): 85%
% Injury Ob ([5]; 17.5 g/ha alone): 90%
% Injury Ob ([5]; 35 g/ha alone): 70%
% Injury POLPY Ob ([5]; alone 17.5 g/ha): 70%
% Injury Ob ([6]; 17.5 g/ha alone): 10%
% Injury Ob ([6]; 35 g/ha alone): 20%
% Injury SCPMA Ob ([6]; alone 17.5 g/ha): 0%

CCOC(=O)[C@@H](C)Oc1ccc(Oc2nc3ccc(Cl)cc3o2)cc1 [Fenoxaprop-p-ethyl]
% Injury Ob (Scirpus species (SCPSS)): 0%
% Injury Ob [7]: 0%
% Injury FIMMI Ob ([3]; alone 35 g/ha): 0%
% Injury POLPY Ob ([5]; alone 35 g/ha): 0%
% Injury SCPMA Ob ([6]; alone 35 g/ha): 0%

COc1nc(C)nc(NC(=O)NS(=O)(=O)c2cc(I)ccc2C(=O)O)n1 [Iodosulfuron, 4-iodo-2-[[[[(4-methoxy-6-methyl-1,3,5-triazin-2-yl)amino]carbonyl]amino]sulfonyl]benzoic acid, reference compound]
pest or weed control at 2.5 g/ha [8]: 68%
AVEFA Ob [9]: 35%
SETVI Ob [10]: 0%
LOLMU Ob [11]: 53%
CIRAR Ob [12]: 50%
ALOMY Ob ([13]; Table 7): 50%
ALOMY Ob ([13]; Table 14): 50%

CCCCC(CC)COC(=O)COc1ccc(Cl)cc1C (stereo not drawn) [MCPA EHE]
% Injury Ob ([1]; 70 g/ha alone): 0%
% Injury Ob ([1]; 140 g/ha alone): 0%
% Injury Ob ([2]; 70 g/ha alone): 0%
% Injury Ob ([2]; 140 g/ha alone): 0%
% Injury Ob ([3]; 70 g/ha alone): 0%
% Injury Ob ([3]; 140 g/ha alone): 0%

Cc1cc(Cl)ccc1OCC(=O)O [MCPA]
POLPE Ob [14]: 23%
STEME Ob [15]: 7%
POLCO Ob [16]: 7%
VERPE Ob [17]: 10%
VIOTR Ob [18]: 17%

CNc1cnn(-c2cccc(C(F)(F)F)c2)c(=O)c1Cl [Norflurazon]
% Injury Ob ([2]; 70 g/ha alone): 0%
% Injury Ob ([3]; 560 g/ha alone): 0%
% Injury CYPES Ob (Cyperus species (CYPSS); Norflurazon 70 g/ha alone (Compound A Methyl half)): 0%
% Injury CYPES Ob (Cyperus species (CYPSS); Norflurazon 70 g/ha alone (Compound A TEA half)): 0%
% Injury Ob ([4]; 560 g/ha alone): 0%
% Injury Ob (Cyperus iria L. (CYPIR); 560 g/ha alone): 0%
% Injury Ob ([6]; 560 g/ha alone): 60%
